Laboratory results taken from the NIST ThermoML archive (doi:10.1021/je101173w).

Assays:
[1] = mn = molality of the nth substance listed, in mol/kg; conditions: 101 kPa, Liquid; for viscosity: Capillary tube (Ostwald / Ubbelohde) method; for mass density: Vibrating tube method
[2] = 101.33 kPa, Liquid; for viscosity: Capillary tube (Ostwald / Ubbelohde) method; for mass density: Vibrating tube method

Oc1cccc(O)c1 [1,3-benzenediol] + CCO
[1]
Conditions | mass density, m1 = 1.634 [kg/m3] | mass density, m1 = 3.537 [kg/m3] | mass density, m1 = 5.77 [kg/m3] | mass density, m1 = 8.441 [kg/m3] | mass density, m1 = 11.69 [kg/m3] | viscosity, m1 = 1.634 [mPa·s] | viscosity, m1 = 3.537 [mPa·s] | viscosity, m1 = 5.77 [mPa·s] | viscosity, m1 = 8.441 [mPa·s] | viscosity, m1 = 11.69 [mPa·s]
293.15 K | 847.02 | 897.16 | 941.64 | 981.15 | 1017.03 | 2.136 | 3.742 | 6.373 | 11.33 | 21.33
303.15 K | 838.53 | 889.03 | 933.72 | 973.42 | 1007.47 | 1.707 | 3.078 | 4.872 | 8.487 | 15.56
313.15 K | 830.12 | 880.71 | 925.87 | 965.64 | 1002.06 | 1.421 | 2.294 | 3.648 | 5.94 | 9.505
323.15 K | 821.65 | 872.63 | 918.18 | 957.95 | 994.49 | 1.265 | 1.947 | 2.864 | 4.295 | 6.578

Oc1cccc(O)c1 [1,3-benzenediol] + O
[1]
Conditions | mass density, 293.15 K [kg/m3] | mass density, 303.15 K [kg/m3] | mass density, 313.15 K [kg/m3] | mass density, 323.15 K [kg/m3] | mass density, 333.15 K [kg/m3] | viscosity, 293.15 K [mPa·s] | viscosity, 303.15 K [mPa·s] | viscosity, 313.15 K [mPa·s] | viscosity, 323.15 K [mPa·s] | viscosity, 333.15 K [mPa·s]
m1 = 2.361 | 1041.62 | 1037.63 | 1032.94 | 1027.74 | 1021.98 | 1.615 | 1.25 | 1.012 | 0.8329 | 0.6974
m1 = 4.819 | 1073.42 | 1068.64 | 1062.96 | 1057.26 | 1050.76 | 2.481 | 1.874 | 1.474 | 1.181 | 0.9741
m1 = 7.567 | 1099.32 | 1093.72 | 1087.57 | 1081.27 | 1074.55 | 3.681 | 2.72 | 2.089 | 1.629 | 1.311
m1 = 10.59 | 1120.13 | 1113.97 | 1107.55 | 1100.86 | 1094.26 | 5.347 | 3.844 | 2.867 | 2.193 | 1.727
m1 = 13.9 | 1137.42 | 1130.96 | 1124.23 | 1117.62 | 1110.53 | 7.61 | 5.36 | 3.9 | 2.909 | 2.247

Oc1cccc(O)c1 [1,3-benzenediol] + CCCO
[1]
Conditions | mass density, 293.15 K [kg/m3] | mass density, 303.15 K [kg/m3] | mass density, 313.15 K [kg/m3] | mass density, 323.15 K [kg/m3] | mass density, 333.15 K [kg/m3] | viscosity, 293.15 K [mPa·s] | viscosity, 303.15 K [mPa·s] | viscosity, 313.15 K [mPa·s] | viscosity, 323.15 K [mPa·s] | viscosity, 333.15 K [mPa·s]
m1 = 1.252 | 846.41 | 838.23 | 830.12 | 821.85 | 813.35 | 3.605 | 2.74 | 2.133 | 1.675 | 1.374
m1 = 2.709 | 886.87 | 878.7 | 870.62 | 862.49 | 854.18 | 6.043 | 4.375 | 3.292 | 2.465 | 1.952
m1 = 4.423 | 924.61 | 916.62 | 908.69 | 900.65 | 892.48 | 10.37 | 7.225 | 5.137 | 3.736 | 2.862
m1 = 6.471 | 960.5 | 952.55 | 944.74 | 936.83 | 928.84 | 18.52 | 12.05 | 8.179 | 5.696 | 4.195
m1 = 8.959 | 994.1 | 986.39 | 978.72 | 970.97 | 963.1 | 33.22 | 20.29 | 12.82 | 8.199 | 6.412

CCO [ethanol]
[2]
Conditions | mass density [kg/m3] | viscosity [mPa·s]
293.15 K | 790.08 | 1.211
303.15 K | 781 | 0.9977
313.15 K | 772.31 | 0.8319
323.15 K | 763.35 | 0.6876
333.15 K | 754.2 | 0.5806

Oc1cccc(O)c1 [1,3-benzenediol] + CCCCO
[1]
Conditions | mass density, 293.15 K [kg/m3] | mass density, 303.15 K [kg/m3] | mass density, 313.15 K [kg/m3] | mass density, 323.15 K [kg/m3] | mass density, 333.15 K [kg/m3] | viscosity, 293.15 K [mPa·s] | viscosity, 303.15 K [mPa·s] | viscosity, 313.15 K [mPa·s] | viscosity, 323.15 K [mPa·s] | viscosity, 333.15 K [mPa·s]
m1 = 1.016 | 844.32 | 836.69 | 828.92 | 821.01 | 812.92 | 4.518 | 3.357 | 2.54 | 1.972 | 1.674
m1 = 2.196 | 878.29 | 870.07 | 862.36 | 854.51 | 846.52 | 7.007 | 5.06 | 3.71 | 2.809 | 2.33
m1 = 3.586 | 910.51 | 902.98 | 895.33 | 887.57 | 879.68 | 11.56 | 8.021 | 5.552 | 4.091 | 3.274
m1 = 5.247 | 942.6 | 935.1 | 927.53 | 919.86 | 912.09 | 19.75 | 12.64 | 8.601 | 6.096 | 4.84
m1 = 7.265 | 974.13 | 966.7 | 959.2 | 951.6 | 943.92 | 34.34 | 20.69 | 13.18 | 8.804 | 6.635
